# Activity calls are given as the source filed them.
# Assays:
# [1] = HEK-293T cell viability reduction – luminescence, B-cell screen hits, cytotoxicity control for BCR NF-kB inhibitor project, dose response (AID 489021); assay type: functional, cell-based;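 note: HEK-293T cells carrying an NF-kB luciferase reporter; cells exposed to compound for about 14 hours before viability readout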
# [2] = target: T1, Short transient receptor potential channel 4 (Mus musculus, UniProt Q9QUQ5); experiment: block of DAMGO-driven TRPC4 calcium entry – cell-based, HEK293 TRPC4/mu-opioid, Fluo-4 calcium, dose response (AID 434942); assay type: functional;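 note: potency of inhibitors blocking the TRPC4 calcium response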
# T1 sequence (Q9QUQ5 whole entry): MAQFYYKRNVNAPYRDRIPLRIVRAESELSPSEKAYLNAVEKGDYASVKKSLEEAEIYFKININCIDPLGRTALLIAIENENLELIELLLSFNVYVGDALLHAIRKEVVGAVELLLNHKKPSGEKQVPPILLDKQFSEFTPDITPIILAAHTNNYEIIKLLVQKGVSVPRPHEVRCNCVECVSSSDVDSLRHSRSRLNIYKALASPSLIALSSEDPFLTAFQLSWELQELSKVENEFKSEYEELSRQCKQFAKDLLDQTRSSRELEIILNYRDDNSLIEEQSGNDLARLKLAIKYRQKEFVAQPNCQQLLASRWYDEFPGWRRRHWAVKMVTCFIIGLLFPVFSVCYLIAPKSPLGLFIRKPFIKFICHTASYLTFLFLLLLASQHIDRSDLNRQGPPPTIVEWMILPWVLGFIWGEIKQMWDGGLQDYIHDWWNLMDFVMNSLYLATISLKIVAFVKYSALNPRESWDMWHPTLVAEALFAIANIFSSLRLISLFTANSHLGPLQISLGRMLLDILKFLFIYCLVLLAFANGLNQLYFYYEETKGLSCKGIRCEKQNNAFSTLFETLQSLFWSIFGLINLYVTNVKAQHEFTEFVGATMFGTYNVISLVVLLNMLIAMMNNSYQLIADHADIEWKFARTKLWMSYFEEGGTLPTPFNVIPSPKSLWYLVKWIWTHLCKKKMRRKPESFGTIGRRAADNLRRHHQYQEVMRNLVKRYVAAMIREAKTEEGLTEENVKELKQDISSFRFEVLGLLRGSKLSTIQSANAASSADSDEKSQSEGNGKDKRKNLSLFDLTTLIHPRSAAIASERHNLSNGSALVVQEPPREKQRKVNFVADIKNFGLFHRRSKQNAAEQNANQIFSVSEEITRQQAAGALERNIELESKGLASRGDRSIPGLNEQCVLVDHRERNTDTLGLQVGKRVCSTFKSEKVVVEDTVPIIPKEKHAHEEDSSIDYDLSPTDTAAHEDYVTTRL
# [3] = system: HEK293; experiment: NOD2 signaling inhibitors in MDP-stimulated cells, cell-based, uHTS, luminescence (AID 2001); assay type: functional; settings: Homo sapiens
# [4] = system: HEK293; experiment: cells; assay type: functional, cell-based; settings: Homo sapiens
# [5] = system: HEK293; experiment: inhibition of NOD1-driven NF-kB reporter – cell-based, luminescence, uHTS, primary screen (AID 1578); assay type: functional; settings: Homo sapiens
# [6] = system: HEK293; experiment: cells; assay type: functional, cell-based; settings: Homo sapiens; remark: listed apart in the source
# [7] = target: Eukaryotic translation initiation factor 4E (Mus musculus, UniProt P63073); experiment: blockers of eIF4G binding by eIF4E – biochemical, TR-FRET, dose response (AID 855); assay type: functional;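 note: potency for disrupting eIF4E binding to eIF4GI seen as loss of FRET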
# Sequence of Eukaryotic translation initiation factor 4E (P63073 whole entry): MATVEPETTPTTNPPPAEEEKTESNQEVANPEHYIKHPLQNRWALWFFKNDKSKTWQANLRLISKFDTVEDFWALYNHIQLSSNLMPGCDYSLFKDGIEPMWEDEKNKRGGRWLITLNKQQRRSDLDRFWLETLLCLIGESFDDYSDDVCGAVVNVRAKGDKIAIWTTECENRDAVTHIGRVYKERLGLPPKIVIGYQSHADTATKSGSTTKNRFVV
# [8] = target: Genome polyprotein (dengue virus type 2, UniProt P29990); experiment: flavivirus cap methylation enzyme inhibition – biochemical, confirmation dose response, primary screen (AID 588689); assay type: functional
# Sequence of Genome polyprotein (P29990 2492-3391 limits assumed): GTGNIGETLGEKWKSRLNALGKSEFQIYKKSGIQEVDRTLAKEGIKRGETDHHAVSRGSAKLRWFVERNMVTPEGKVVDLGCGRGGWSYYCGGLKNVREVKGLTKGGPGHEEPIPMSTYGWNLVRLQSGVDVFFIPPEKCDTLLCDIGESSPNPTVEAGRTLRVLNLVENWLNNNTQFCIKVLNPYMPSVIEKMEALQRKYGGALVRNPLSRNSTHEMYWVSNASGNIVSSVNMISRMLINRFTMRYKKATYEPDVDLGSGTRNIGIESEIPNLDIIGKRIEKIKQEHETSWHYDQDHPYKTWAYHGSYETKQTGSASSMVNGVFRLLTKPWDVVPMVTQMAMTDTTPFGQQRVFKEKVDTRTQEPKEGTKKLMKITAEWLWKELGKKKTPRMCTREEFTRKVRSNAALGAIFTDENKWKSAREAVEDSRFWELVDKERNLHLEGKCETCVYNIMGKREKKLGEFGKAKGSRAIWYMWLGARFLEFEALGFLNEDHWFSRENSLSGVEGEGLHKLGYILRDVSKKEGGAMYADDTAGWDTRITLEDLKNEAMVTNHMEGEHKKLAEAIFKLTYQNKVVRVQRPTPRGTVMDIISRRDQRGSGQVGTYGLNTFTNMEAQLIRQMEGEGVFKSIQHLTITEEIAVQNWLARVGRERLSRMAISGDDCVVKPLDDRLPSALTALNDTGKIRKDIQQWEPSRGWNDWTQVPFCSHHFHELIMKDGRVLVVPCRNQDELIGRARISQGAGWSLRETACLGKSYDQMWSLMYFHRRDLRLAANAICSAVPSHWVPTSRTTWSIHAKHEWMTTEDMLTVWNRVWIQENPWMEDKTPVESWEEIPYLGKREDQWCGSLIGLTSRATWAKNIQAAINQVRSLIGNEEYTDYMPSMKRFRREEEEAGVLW
# [9] = alpha-synuclein stem-loop luciferase translation blockers – H4 neuroglioma cells, luminescence, confirmation (AID 1988); assay type: functional, cell-based
# [10] = luciferase reporter signal suppression in cells – H4 neuroglioma cells, luminescence, dose response (AID 1990); assay type: functional, cell-based
# [11] = Luminescence Cell-Based Dose Response HTS to Identify Inhibitors of 5'UTR Stem-Loop Driven Prion Protein mRNA Translation in H4 Neuroglioblastoma Cells. [Related pubchem assays: 1827 (Project Summary), 1813 (Primary HTS)]; assay type: functional
# [12] = target: Paired box protein Pax-8 (Homo sapiens, UniProt Q06710); experiment: PAX8 transcriptional activity inhibition in RMG-I – RMG-I cells, luciferase, cherry-pick, dose response (AID 687027); assay type: functional, cell-based;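 note: luciferase reporter driven by Pax8 target thyroperoxidase promoter measured by SteadyGlo luminescence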
# Sequence of Paired box protein Pax-8 (Q06710 whole entry, the tested form may be a part): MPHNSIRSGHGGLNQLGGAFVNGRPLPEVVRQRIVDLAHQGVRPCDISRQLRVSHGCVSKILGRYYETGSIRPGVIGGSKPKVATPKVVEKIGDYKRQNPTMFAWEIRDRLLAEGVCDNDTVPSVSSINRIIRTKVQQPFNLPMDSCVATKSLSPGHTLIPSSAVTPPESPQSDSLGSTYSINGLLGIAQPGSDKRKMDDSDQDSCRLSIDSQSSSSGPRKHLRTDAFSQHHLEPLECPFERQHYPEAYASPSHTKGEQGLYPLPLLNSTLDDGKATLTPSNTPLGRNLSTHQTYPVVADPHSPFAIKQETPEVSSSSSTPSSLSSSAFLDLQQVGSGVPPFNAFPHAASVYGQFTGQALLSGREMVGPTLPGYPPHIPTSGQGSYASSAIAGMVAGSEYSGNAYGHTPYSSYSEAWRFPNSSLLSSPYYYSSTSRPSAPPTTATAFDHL
# [13] = off-target signal loss in HeLa-CEM21 co-culture – HeLa F-luc CTL cells, cherry-picked, counter-screen for HIV-1 Env fusion inhibitor project, dose response (AID 652040); assay type: functional, cell-based;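 note: potency for signal decrease marking cytotoxic or nonspecific inhibition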
# [14] = system: H4; experiment: Luminescence Cell-Based Dose Response HTS to Identify Activators of 5'UTR Stem-Loop Driven Prion Protein mRNA Translation in H4 Neuroglioblastoma Cells. [Related pubchem assays: 1829 (Project Summary), 1814 (Primary HTS)]; assay type: functional; settings: Homo sapiens
# [15] = Luminescence Cell-Based Dose Response HTS to Identify Activators of Luciferase Translation or Activity in H4 […] Cells. [Related pubchem assays: 1829 (Project Summary), 1814 (Primary HTS)]; assay type: functional
# [16] = HIV-1 AD8 envelope cell-cell fusion blockers – cherry-pick, dose response (AID 652062); assay type: functional, cell-based;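 note: luciferase signal from cell-cell fusion driven by HIV-1 clade B AD8 Env; potency is for inhibitors of fusion seen as a drop in luminescence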
# [17] = viability loss in CEM21 cells – cell-based, CellTiter-Glo luminescence, cherry-picked, cytotoxicity control for viral fusion inhibitor project, dose response (AID 652042); assay type: functional;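 note: potency for signal decrease meaning cytotoxicity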
# [18] = Luminescence Cell-Based Dose Confirmation HTS to Identify Activators of 5'UTR Stem-Loop Driven Alpha-Synuclein mRNA Translation in H4 Neuroglioblastoma Cells. [Related pubchem assays: 1829 (Project Summary), 1814 (Primary HTS)]; assay type: functional
# [19] = target: T2, DNA repair protein RAD52 homolog (Homo sapiens, UniProt P43351); assay type: functional, biochemical
# T2 sequence (P43351 whole entry): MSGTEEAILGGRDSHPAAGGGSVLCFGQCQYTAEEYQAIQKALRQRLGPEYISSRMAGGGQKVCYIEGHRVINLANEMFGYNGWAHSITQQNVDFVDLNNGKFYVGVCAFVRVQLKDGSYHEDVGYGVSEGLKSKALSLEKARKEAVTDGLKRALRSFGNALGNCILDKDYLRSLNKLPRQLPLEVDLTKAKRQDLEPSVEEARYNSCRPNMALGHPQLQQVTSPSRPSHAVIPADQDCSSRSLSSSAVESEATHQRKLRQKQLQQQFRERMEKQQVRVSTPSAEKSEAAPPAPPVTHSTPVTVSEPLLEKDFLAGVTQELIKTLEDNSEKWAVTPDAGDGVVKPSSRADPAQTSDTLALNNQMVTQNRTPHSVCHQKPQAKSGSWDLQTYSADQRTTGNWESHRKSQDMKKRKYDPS
# [20] = Trypanosoma cruzi growth suppression in host cells – NIH3T3 host cells, beta-gal luminescence, confirmation (AID 2044); assay type: functional, cell-based;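 note: intracellular parasites grown in NIH/3T3 mouse fibroblasts as host cells; luminescent beta-galactosidase reporter signal from transgenic T. cruzi replicating inside host cells; inhibitors lower the luminescence signal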
# [21] = NIH3T3 cell viability loss – ATP luminescence, mouse fibroblasts, counter-screen, dose response (AID 2010); assay type: functional, cell-based;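 note: cells exposed to compound for about 90 hours before reading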
# [22] = fluconazole-exposed Candida albicans growth modulators – fluorescence, retest, confirmation (AID 2467); assay type: functional, cell-based
# [23] = NIH-3T3 fibroblast cytotoxicity, dose response, cytotoxicity control, cell-based, fluorescence, Alamar Blue, secondary assay (AID 2327); assay type: functional;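 note: NIH-3T3 mouse fibroblasts cultured with fluconazole at 8 µg/mL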
# [24] = target: Nonstructural protein 1 (Influenza A virus, UniProt Q194T2); assay type: functional, Influenza A virus (A/California/07/2009(H1N1))
# Sequence of Nonstructural protein 1 (Q194T2 whole entry): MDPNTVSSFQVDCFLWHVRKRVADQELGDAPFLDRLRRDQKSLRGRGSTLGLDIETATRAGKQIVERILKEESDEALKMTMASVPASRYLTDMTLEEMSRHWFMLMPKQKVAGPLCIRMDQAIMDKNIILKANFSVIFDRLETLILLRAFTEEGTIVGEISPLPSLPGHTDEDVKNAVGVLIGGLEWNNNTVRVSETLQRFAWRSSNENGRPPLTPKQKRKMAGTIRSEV
# [25] = system: INS1; experiment: INS-1E survival protection against cytokine death – cell-based, luminescence, retest, dose response (AID 449756); assay type: functional; settings: Rattus norvegicus;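 note: cell death triggered by IL-1 beta plus TNF-alpha plus IFN-gamma mixture; protective hits raise ATP signal compared with cytokine alone wells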
# [26] = blockers of HIV-1 envelope-mediated cell-cell fusion – cherry-pick, dose response (AID 652057); assay type: functional, cell-based
# [27] = blockers of HIV-1 ZM109 envelope-driven cell-cell fusion – HeLa effector, CEM target cells, luciferase, cherry-pick, dose response (AID 652058); assay type: functional, cell-based;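 note: luciferase signal from HIV-1 Env mediated cell-cell fusion of effector and target cells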
# [28] = system: H9c2; experiment: cells; assay type: functional, cell-based; settings: Rattus norvegicus, H9c2, Myocardium;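 note: confirmatory concentration-response retest of ultra-high-throughput screening hits for modulation of myocardial damage; cell death induced by hydrogen peroxide oxidative stress; compound pretreatment for 60 min then peroxide exposure for 2 h; potency is for protecting the cells against peroxide damage rather than for killing them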
# [29] = target: T3, Rac GTPase-activating protein 1 (Homo sapiens, UniProt Q9H0H5); experiment: blockers of MgcRacGAP-driven Rac1 GTP hydrolysis – biochemical, ADP Hunter fluorescence, primary and confirmatory, confirmation (AID 624330); assay type: functional
# T3 sequence (Q9H0H5 whole entry): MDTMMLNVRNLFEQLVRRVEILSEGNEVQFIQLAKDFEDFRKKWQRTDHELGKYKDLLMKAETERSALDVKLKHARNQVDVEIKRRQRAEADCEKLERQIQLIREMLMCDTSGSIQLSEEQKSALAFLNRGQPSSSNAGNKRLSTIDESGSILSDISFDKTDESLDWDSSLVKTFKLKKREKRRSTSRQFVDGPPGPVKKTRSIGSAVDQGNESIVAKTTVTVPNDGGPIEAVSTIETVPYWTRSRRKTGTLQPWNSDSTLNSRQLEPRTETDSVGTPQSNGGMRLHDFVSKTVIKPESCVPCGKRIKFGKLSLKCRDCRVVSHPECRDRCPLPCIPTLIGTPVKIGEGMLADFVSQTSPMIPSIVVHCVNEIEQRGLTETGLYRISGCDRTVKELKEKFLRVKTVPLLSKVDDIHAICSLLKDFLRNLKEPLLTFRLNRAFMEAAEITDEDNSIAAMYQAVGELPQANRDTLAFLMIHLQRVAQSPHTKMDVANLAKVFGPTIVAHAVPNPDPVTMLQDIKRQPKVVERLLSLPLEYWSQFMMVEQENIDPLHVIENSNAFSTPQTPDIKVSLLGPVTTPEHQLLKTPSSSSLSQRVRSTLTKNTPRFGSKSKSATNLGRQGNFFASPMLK
structure (smiles),measurement,setting,value
CCn1c(=O)cc(OCC(=O)NCc2ccc(C)o2)c2ccccc21,IC50,[1],> 80 µM (inactive)
O=C(C[N+]1(CC#Cc2ccccc2)CCCCC1)c1ccc(Cl)cc1,EC50,[2],7.5 µM (active)
Oc1cc(-c2ccccc2)nc2cc(-c3ccc(Br)cc3)nn12,IC50,[3],5.12 µM (inactive)
same,IC50,[4],> 20 µM (inactive)
same,EC50,[5],10.8 µM (active)
same,IC50,[6],16.9 µM (active)
Cc1ccc(C)c(NC(S)=NCCN(C2CCCCC2)C2CCCC2)c1,IC50,[7],50 µM (inactive)
CCCCOc1ccc(Nc2cc(Cl)ccc2C(=O)O)cn1,IC50,[8],59.8 µM (active)
same,EC50,[2],10.6 µM (active)
O=C(NCCC1CCCCN1S(=O)(=O)c1ccc(Cl)cc1)C(=O)NCc1ccncc1 (configuration not stated),EC50,[9],9.38 µM (active)
same,EC50,[10],15.5 µM (active)
same,EC50,[11],20.8 µM (active)
same,IC50,[1],> 80 µM (inactive)
same,AC50,[12],3.27 µM (active)
Cc1nnc(SC(=O)N2c3ccccc3Sc3ccccc32)s1,AC50,[13],30.8 µM (active)
same,EC50,[14],> 120 µM (not active)
same,EC50,[15],> 60 µM (not active)
same,AC50,[16],3.79 µM (active)
same,AC50,[17],10.6 µM (active)
same,EC50,[18],> 120 µM (not active)
CCOC(=O)c1c(C)n(CC(O)CN(C)C)c2cc(Br)c(OC)cc12 (configuration not stated),AC50,[19],10.1 µM (active)
same,EC50,[20],685 nM (active)
same,EC50,[21],> 60 µM (not active)
Cc1cc(C)cc(NC(=N)Nc2nc(C)cc(C)n2)c1,EC50,[2],2.99 µM (active)
Cc1ccc(C)c(OCc2ccc(C(=O)NN)o2)c1,IC50,[1],> 80 µM (inactive)
N#CC1=C(N)Oc2c(ccc3cccnc23)C1c1cccnc1 (configuration not stated),EC50,[22],1.18 µM (active)
same,EC50,[23],22.1 µM (active)
same,IC50,[24],56.6 µM (active)
same,AC50,[25],3.17 µM (active)
C=CCn1c(S)nnc1-c1ccco1,IC50,[7],> 64 µM (inactive)
CCOc1cc2c3c(c1)C(C)CC(C)(C)N3C(=O)C2=O (configuration not stated),AC50,[13],12.2 µM (active)
same,AC50,[26],8.22 µM (active)
same,AC50,[16],12.7 µM (active)
same,AC50,[27],6.91 µM (active)
same,AC50,[17],50.9 µM (active)
COC(=O)Cn1cnc2c(Cl)nc(F)nc21,AC50,[13],25.6 µM (active)
same,AC50,[26],20.5 µM (active)
same,AC50,[17],47.3 µM (active)
COc1ccc(Cl)c2sc(N(CCN(C)C)C(=O)c3ccc4c(c3)OCCO4)nc12,AC50,[19],9.01 µM (active)
CCOc1ccccc1CN1CCN(Cc2cccc3nonc23)CC1CCO (configuration not stated),EC50,[2],5.31 µM (active)
CCN(C[C@H]1N[C@@](C)(C(=O)OC)[C@H]2C(=O)N(Cc3ccccc3)C(=O)[C@@H]12)C(=O)c1ccc(C(C)(C)C)cc1,AC50,[13],10.2 µM (active)
same,AC50,[26],5.34 µM (active)
same,IC50,[28],> 79 µM (inactive)
same,AC50,[16],16.8 µM (active)
same,AC50,[27],4.92 µM (active)
CC1(Oc2ccc3ccccc3c2)CCN(Cc2cccn2-c2nccs2)C1 (configuration not stated),AC50,[13],14.7 µM (active)
same,AC50,[26],10.9 µM (active)
same,AC50,[16],29.4 µM (active)
same,AC50,[27],12.3 µM (active)
same,AC50,[17],51.9 µM (active)
O=C(N/N=C/c1ccc(O)cc1O)c1ccncc1,IC50,[24],5.88 µM (active)
CN(C)CCCNc1nc2cc(-c3cnn(Cc4ccccc4)c3)sc2c(=O)n1C,AC50,[19],19.8 µM (active)
C/C(CC(=O)N(C(C)C)C(C)C)=N\NC(=O)COc1ccc(Cl)cc1Cl,EC50,[2],13.3 µM (active)
C=CCN1C(=O)CS/C1=N\c1cccc(O)c1,IC50,[7],> 64 µM (inactive)
Oc1cc(O)cc(-c2cc3ccc(O)cc3o2)c1 [MORACIN M],IC50,[1],> 80 µM (inactive)
same,IC50,[29],23 µM (active)
O=C(N/N=C/c1ccccc1O)c1ccncc1 [SALINAZID],IC50,[24],7.54 µM (active)

# From ChEMBL document CHEMBL1201862, “PubChem BioAssay data set” (2004)
